# Assay results: PubChem BioAssay AID1963873 (Molecular Pharmacology Branch, DTP, NCI, 2024)
# Tested on: 276233-004-R-J1-PDC KRAS spheroids with HUVEC/MSC, viability
# Assay: Anticancer human tumor 276233-004-R-J1-PDC patient-derived colon adenocarcinoma cell line growth inhibition [KRAS2]
# Details: for IC50: curve of first compound; for viability, T/C: stronger effect = lower value
# Procedure, shortened: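 KRAS-mutant tumor cells were grown as spheroids with HUVEC endothelial cells and human MSCs as stroma. Targeted agents were tested alone and with KRAS pathway inhibitors. Doses started at or near clinical Cmax, or 10 microM, descending half-log.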
# [1] = second compound 0.1 µM, first compound 0.0316 µM
# [2] = second compound 0.1 µM, first compound 0.1 µM
# [3] = second compound 0.1 µM, first compound 0.316 µM
# [4] = second compound 0.1 µM, first compound 1 µM
# [5] = second compound 0.1 µM, first compound 3.16 µM
# [6] = second compound 0.1 µM, first compound 10 µM
# [7] = second compound 0.316 µM, first compound 0.0316 µM
# [8] = second compound 0.316 µM, first compound 0.1 µM
# [9] = second compound 0.316 µM, first compound 0.316 µM
# [10] = second compound 0.316 µM, first compound 1 µM
# [11] = second compound 0.316 µM, first compound 3.16 µM
# [12] = second compound 0.316 µM, first compound 10 µM
# [13] = second compound 1 µM, first compound 0.0316 µM
# [14] = second compound 1 µM, first compound 0.1 µM
# [15] = second compound 1 µM, first compound 0.316 µM
# [16] = second compound 1 µM, first compound 1 µM
# [17] = second compound 1 µM, first compound 3.16 µM
# [18] = second compound 1 µM, first compound 10 µM
# [19] = second compound 3.16 µM, first compound 0.0316 µM
# [20] = second compound 3.16 µM, first compound 0.1 µM
# [21] = second compound 3.16 µM, first compound 0.316 µM
# [22] = second compound 3.16 µM, first compound 1 µM
# [23] = second compound 3.16 µM, first compound 3.16 µM
# [24] = second compound 3.16 µM, first compound 10 µM
# [25] = second compound 10 µM, first compound 0.0316 µM
# [26] = second compound 10 µM, first compound 0.1 µM
# [27] = second compound 10 µM, first compound 0.316 µM
# [28] = second compound 10 µM, first compound 1 µM
# [29] = second compound 10 µM, first compound 3.16 µM
# [30] = second compound 10 µM, first compound 10 µM
# 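Note: cells exposed to agents for seven days before viability read.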
# 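Throughout, for viability, T/C: 100% = DMSO vehicle control wells and lower values mean fewer viable cells.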
Structure (SMILES),IC50 (second compound 0.1 µM),IC50 (second compound 0.316 µM),IC50 (second compound 1 µM),IC50 (second compound 3.16 µM),IC50 (second compound 10 µM),"viability, T/C [1]","viability, T/C [2]","viability, T/C [3]","viability, T/C [4]","viability, T/C [5]","viability, T/C [6]","viability, T/C [7]","viability, T/C [8]","viability, T/C [9]","viability, T/C [10]","viability, T/C [11]","viability, T/C [12]","viability, T/C [13]","viability, T/C [14]","viability, T/C [15]",also measured
CC1OCC2(CCN(c3cnc(Sc4ccnc(N)c4Cl)c(N)n3)CC2)C1N (stereo not given) + C=CC(=O)N1CCN(c2nc(=O)n(-c3c(C)ccnc3C(C)C)c3nc(-c4c(O)cccc4F)c(F)cc23)C(C)C1,> 10 µM,> 10 µM,> 10 µM,> 10 µM,> 10 µM,93.7%,85.8%,82.3%,83.7%,71.6%,69.9%,88.7%,103%,81.9%,85.9%,67.2%,68%,94.7%,97.7%,76.2%,"viability, T/C [16]: 87.4%; viability, T/C [17]: 74.2%; viability, T/C [18]: 55.8%; viability, T/C [19]: 98.6%; viability, T/C [20]: 96.4%; viability, T/C [21]: 88.3%; viability, T/C [22]: 81.8%; viability, T/C [23]: 63.1%; viability, T/C [24]: 58%; viability, T/C [25]: 78.4%; viability, T/C [26]: 82.4%; viability, T/C [27]: 63.9%; viability, T/C [28]: 58.3%; viability, T/C [29]: 68.4%; viability, T/C [30]: 71.8%"
Cn1nccc1Nc1nccc(-c2cc3c(s2)C(C)(C)N(CCN2CCOCC2)C3=O)n1 + C=CC(=O)N1CCN(c2nc(=O)n(-c3c(C)ccnc3C(C)C)c3nc(-c4c(O)cccc4F)c(F)cc23)C(C)C1,> 10 µM,> 10 µM,> 10 µM,> 10 µM,> 10 µM,106%,100%,83.1%,71.6%,69.9%,60.4%,114%,112%,101%,99.3%,66.2%,66.4%,132%,108%,83.1%,"viability, T/C [16]: 93.1%; viability, T/C [17]: 67.6%; viability, T/C [18]: 69.2%; viability, T/C [19]: 97.1%; viability, T/C [20]: 122%; viability, T/C [21]: 93.1%; viability, T/C [22]: 98.5%; viability, T/C [23]: 72.2%; viability, T/C [24]: 86.5%; viability, T/C [25]: 89.5%; viability, T/C [26]: 85.7%; viability, T/C [27]: 85.2%; viability, T/C [28]: 72.6%; viability, T/C [29]: 82.2%; viability, T/C [30]: 105%"
